Positions of bridges follow the written chain, without caps; N, C: chain ends. Cy5.5 = cyanine near-infrared dye Cy5.5, conjugated via its NHS ester to the amino group
Tests used:
human tumor cells = experiment: In vitro tumor cell binding study (fluorescence microscopy); type: cell-based
Method: All human tumor cell-lines were obtained from American Type Culture Collection (Rockville, Md.) and were maintained at 37° C. in a humidified atmosphere containing 5% CO2 in Dulbecco's Modified Eagle's Medium/Nutrient Mixture F-12 Ham (DMEM/F12) and 10% FBS (Gibco, Grand Island, N.Y.).
Cells were seeded on cover slips in 24-well plates (Becton Dickinson Labware, Franklin Lakes, N.J.) and incubated in DMEM/F12 culture medium (0.5 ml/well) overnight. Cy5.5 and Cy5.5-HWG polypeptide imaging agents were added into each well at the indicated concentrations. For the blocking study, doxycycline was added to the culture medium followed by the addition of Cy5.5-HWG polypeptide imaging agent 1 hour later. After an incubation period of 5-60 minutes at 37° C., cells were washed twice with PBS and incubated in a solution of Sytox Green in 95% ethyl alcohol (1 μM, Molecular Probe, Eugene, Oreg.) for 15 minutes to fix and stain cell nuclei. For staining of MMP expression, cells that were pretreated with Cy5.5-HWG polypeptide and stained with Sytox Green were incubated with anti-MMP antibody (Sigma) (1 mg/ml; 1:200 dilution) for 1 hour at room temperature. The cells were then washed and incubated with Texas Red conjugated go at anti-rabbit IgG (Molecular Probe, 4 μg/ml) at room temperature for 1 hour. Cells were washed again with PBS and the cover slips were mounted for microscopic examination using a DMR microscope (Leica Microsystems, Inc., Brannockburn, Ill.). The microscope was equipped with a 75W Xenon lamp, 775 nm/845 nm, 560 nm/645 nm, and 480 nm/535 nm (Excitation/emission) filters (Chroma Technology Corp., Brattleboro, Vt.), a Hamamatsu B/W Chilled CCD camera (Hamamatsu Photonics K.K., Hamamatsu City, Japan), and Image-Pro Plus 4.5.1 software (Media Cybernetics, Silver Spring, Md.). In the multiple staining images, Cy5.5, MMPs, and Sytox Green were pseudocolored red, green, and blue, respectively.

[1] = tested on: intratibia PC-3 prostate tumors; experiment: In vivo NIR fluorescent imaging with HWG imaging agent; design: species or system mice
Method: Four to six week-old athymic nude mice (18-22 g, Harlan Sprague Dawley, Inc., Indianapolis, Ind.) were housed 5 per cage with sterilized pet chow (Harlan Sprague Dawley) and sterilized water. Animals were maintained in a pathogen-free mouse colony in the Department of Veterinary Medicine at the University of Texas M.D. Anderson Cancer Center. All experiments were performed in accordance with the guidelines of the Institutional Animal Care and Use Committee. Tumor cells were harvested near confluence by incubation with 0.05% trypsin-EDTA. Cells were pelleted by centrifugation at 450×g for 5 minutes and resuspended in sterile PBS. Cells (2-3×10^6/animal) were implanted subcutaneously into the chest wall or the hind legs of the mice. Human PC-3 prostate tumors were obtained by intratibia injection of PC-3 cells into male nude mice. Human U87 glioma tumors were obtained by intracranial injection. In vivo fluorescence imaging was accomplished by illuminating the animal with light from a laser diode (785 nm, 80 mW for IGC; 660 nm, 35 mW for Cy 5.5 dyes) expanded to an approximate 8 cm diameter circular area. The re-emitted fluorescent light was collected by an image intensifier (model F[…], ITT Night Vision, Roanoke, Va.) lens-coupled to a CCD camera (model CH350, Photometrics, Tucson, Ariz.). The imaging was designed so that the field of view could be varied from 3×3 cm to over 12×12 cm by varying the image distance of the 50 mm lens used to focus the image onto the photocathode of the intensifier. The lens was fitted with a holographic notch-plus filter (785 nm center wavelength for ICG and 660 nm center wavelength for Cy5.5 dyes; Kaiser Optical Systems, Inc., Ann Arbor, Mich.) and a bandpass filter (830 nm center wavelength for ICG, 710 nm center wavelength for Cy5.5 dyes) to reject back-scattered and reflected excitation photons. Image acquisition was accomplished using V++ software (Digital Optics, Auckland, New Zealand) and obtained images were stored in uncompressed tagged image file format (tiff). […]

MDA-MB-468 tumors = experiment: as above; design: species or system mice; conditions: subcutaneous MDA-MB-468 tumors, 15 nmol per mouse
Method: (§1) Four to six week-old athymic nude mice (18-22 g, Harlan Sprague Dawley, Inc., Indianapolis, Ind.) were housed 5 per cage with sterilized pet chow (Harlan Sprague Dawley) and sterilized water. Animals were maintained in a pathogen-free mouse colony in the Department of Veterinary Medicine at the University of Texas M.D. Anderson Cancer Center. All experiments were performed in accordance with the guidelines of the Institutional Animal Care and Use Committee. Tumor cells were harvested near confluence by incubation with 0.05% trypsin-EDTA. Cells were pelleted by centrifugation at 450×g for 5 minutes and resuspended in sterile PBS. Cells (2-3×10^6/animal) were implanted subcutaneously into the chest wall or the hind legs of the mice. Human PC-3 prostate tumors were obtained by intratibia injection of PC-3 cells into male nude mice. Human U87 glioma tumors were obtained by intracranial injection.
(§2) In vivo fluorescence imaging was accomplished by illuminating the animal with light from a laser diode (785 nm, 80 mW for IGC; 660 nm, 35 mW for Cy 5.5 dyes) expanded to an approximate 8 cm diameter circular area. The re-emitted fluorescent light was collected by an image intensifier (model FS9910C, ITT Night Vision, Roanoke, Va.) lens-coupled to a CCD camera (model CH350, Photometrics, Tucson, Ariz.). The imaging was designed so that the field of view could be varied from 3×3 cm to over 12×12 cm by varying the image distance of the 50 mm lens used to focus the image onto the photocathode of the intensifier. The lens was fitted with a holographic notch-plus filter (785 nm center wavelength for ICG and 660 nm center wavelength for Cy5.5 dyes; Kaiser Optical Systems, Inc., Ann Arbor, Mich.) and a bandpass filter (830 nm center wavelength for ICG, 710 nm center wavelength for Cy5.5 dyes) to reject back-scattered and reflected excitation photons. Image acquisition was accomplished using V++ software (Digital Optics, Auckland, New Zealand) and obtained images were stored in uncompressed tagged image file format (tiff). Data processing and analysis was accomplished using Matlab software (The Math Works, Inc., Natick, Mass.).

SKBr-3 tumors = experiment: as above; design: species or system mice; conditions: 4 days after i.v. injection, 15 nmol per mouse
Method: as §1, §2

HT1080 tumor = experiment: as above; design: species or system mice; conditions: subcutaneous HT1080 tumor, 27 hours after i.v. injection, 15 nmol/mouse
Method: as §1, §2

KS1767 tumors = experiment: as above; design: species or system mice; conditions: subcutaneous KS1767 tumors, 15 nmol per mouse
Method: as §1, §2

human glioma U87 tumor = experiment: as above; design: species or system mice
Method: as §1, §2

Cy5.5-c(KAHWGFTLD)NH2 ({Cy5.5}-KAHWGFTLD-NH2; lactam 1-9)
Binding to tumor cells (human tumor cells; SKBr-3, HT1080, MDA-MB-435, MDA-MB-468, U87 (PC-3 and U87 for the Tyr analogue), 37° C.): bound
Co-localization with MMPs (MMP-2, MMP-8, MMP-9 staining) (human tumor cells; all cell lines tested): co-localized with MMPs
Fluorescent signal in contra lateral tibia region preinjected with saline ([1]; control leg, i.v. injection of imaging agent): no fluorescent signal was detected
Visualization of small tumor in NIR image ([1]; intratibia PC-3, no lesion by X-ray, 3 days after inoculation, 24 and 48 hours after injection): clearly visualized
Presence of tumors shown in NIR images (specificity versus scrambled peptide) ([1]; intratibia PC-3 inoculated 3 days earlier, images 24 hours after injection): clearly showed the presence of tumors
Visualization of tumor in NIR image (MDA-MB-468 tumors): clearly visualized
Fluorescent signal in tumor (SKBr-3 tumors): strong fluorescent signal
Visualization of tumor in NIR image (HT1080 tumor): clearly visualized with minimal background signal
Visualization of tumor in NIR image (KS1767 tumors): clearly visualized
Binding and retention in the tumor (NIR image) (human glioma U87 tumor; intracranial U87, tumor 3-4 mm, 12 days after inoculation, 38 hours after injection, intact animal and excised brain): clearly depicted
Visualization of small tumor in NIR image (human glioma U87 tumor; subcutaneous U87, lesion less than 2 mm, 3 days after inoculation, 24 and 48 hours after injection): clearly visualized
